The results in this text go back to patent US20140309210A1, “INDAZOLE COMPOUNDS, COMPOSITIONS AND METHODS OF USE THEREOF” (Genentech, Inc., priority 2011, published 2014).

Where only a bound is given, the exact number is not on record here.

In the test the target is T1, purified ITK (Invitrogen PV3875) (Homo sapiens, UniProt Q08881).
T1 construct: purchased Invitrogen PV3875
T1 sequence (Q08881 1-620): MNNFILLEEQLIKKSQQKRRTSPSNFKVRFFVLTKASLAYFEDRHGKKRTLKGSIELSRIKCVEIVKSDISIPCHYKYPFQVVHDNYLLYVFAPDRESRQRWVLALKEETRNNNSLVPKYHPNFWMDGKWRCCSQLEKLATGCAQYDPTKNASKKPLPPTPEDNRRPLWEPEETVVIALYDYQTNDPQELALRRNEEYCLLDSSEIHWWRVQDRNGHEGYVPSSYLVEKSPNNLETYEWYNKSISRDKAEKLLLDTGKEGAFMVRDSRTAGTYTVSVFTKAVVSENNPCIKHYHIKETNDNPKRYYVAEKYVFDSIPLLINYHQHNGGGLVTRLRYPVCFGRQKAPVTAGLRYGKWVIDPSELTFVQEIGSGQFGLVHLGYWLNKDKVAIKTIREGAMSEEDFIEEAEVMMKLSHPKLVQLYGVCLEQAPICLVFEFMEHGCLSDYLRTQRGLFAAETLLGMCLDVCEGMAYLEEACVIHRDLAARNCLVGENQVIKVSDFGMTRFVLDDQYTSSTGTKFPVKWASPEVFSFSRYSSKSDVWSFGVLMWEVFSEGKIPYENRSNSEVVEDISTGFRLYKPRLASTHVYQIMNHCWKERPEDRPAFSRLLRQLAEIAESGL
Description: ITK peptide phosphorylation assay (Caliper LabChip or LCMS). The test is classed as biochemical. On the procedure: The ability of purified ITK (Invitrogen PV3875) to catalyze peptide phosphorylation is monitored using a Caliper LabChip 3000 microfluidic unit (Caliper assay) or by liquid chromatography-mass spectrometry (LCMS) using a Waters Acquity system (LCMS assay). […] Reactions are quenched by the addition of 2,2′,2″,2′″-(ethane-1,2-diyldinitrilo)tetraacetic acid (50 mM final). Non-phosphorylated substrate and phosphorylated product peptides are separated and quantified using a Caliper LabChip 3000 instrument. […] Reactions are quenched by the addition of trichloroacetic acid (5% v/v final). Non-phosphorylated substrate and phosphorylated product peptides are separated by ultra performance LC and detected by a coupled triple quadrupole MS device applying multiple reaction monitoring (MRM) for quantification. The area of the MRM-extracted mass signal is used to assess the inhibition by test compounds. Equilibrium dissociation constant (Ki) values for ITK inhibitors are calculated from plots of activity vs. inhibitor concentration using Morrison's quadratic equation that accounts for the potential of tight binding, and by also applying the conversion factor that accounts for competitive inhibition and the concentration of ATP used in the assay relative to its apparent Michaelis constant (Km,app).

Where [1] appears, read: Table 2, Examples 1-140, class symbols.
Setting [2] is: Table 3, specific values for certain examples.

Under setting [1], `O=C(Nc1cnn(Cc2csc(-c3ccccn3)n2)c1)c1n[nH]c2cc(-c3cn[nH]c3)ccc12` [Example 24, 6-(1H-pyrazol-4-yl)-N-[1-[[2-(2-pyridyl)thiazol-4-yl]methyl]pyrazol-4-yl]-1H-indazole-3-carboxamide] registered a Ki of 0.01 to 1 nM.

Regarding `CC(C)(O)c1cccc(Cn2cc(NC(=O)c3n[nH]c4cc(-c5cn[nH]c5)ccc34)cn2)c1` [Example 47, 6-(1H-Pyrazol-4-yl)-1H-indazole-3-carboxylic acid {1-[3-(1-hydroxy-1-methyl-ethyl)-benzyl]-1H-pyrazol-4-yl}-amide], the Ki under setting [1] lay within 1 to 100 nM. For the compound `CC(C)(O)CNCc1ccc(Cn2cc(NC(=O)c3n[nH]c4ccccc34)cn2)cc1` [Example 113, N-(1-(4-((2-hydroxy-2-methylpropylamino)methyl)benzyl)-1H-pyrazol-4-yl)-1H-indazole-3-carboxamide], the inhibitory constant (Ki) under setting [1] was in the range of 1 to 100 nM.

Where the note is “Table 1, Examples 141-279”, `CCC(c1ccccc1)n1cc(NC(=O)c2n[nH]c3cc(-c4cncc(OC)c4)ccc23)cn1` (stereo not drawn) [Example 214, 6-(5-methoxy-3-pyridyl)-N-[1-(1-phenylpropyl)py-razol-4-yl]-1H-indazole-3-carboxamide] had a Ki of 7.17 nM.

For the compound `COc1cccc2c(C(=O)Nc3cnn(Cc4cccc(C#N)c4)c3)n[nH]c12` [Example 5, N-(1-(3-cyanobenzyl)-1H-pyrazol-4-yl)-7-methoxy-1H-indazole-3-carboxamide], the Ki by setting is: under setting [1], more than 100 nM; under setting [2], more than 3500 nM.

`CC[C@@H](c1cscn1)n1cc(NC(=O)c2n[nH]c3cc(-c4cn[nH]c4)ccc23)cn1` [Example 175, 6-(1H-pyrazol-4-yl)-N-[1-[(1S)-1-thiazol-4-ylpropyl]pyrazol-4-yl]-1H-indazole-3-carboxamide] had a Ki (Table 1, Examples 141-279) of 0.7 nM. This counts as sub-nanomolar. Compound `O=C(Nc1cnn(Cc2ccc(CNCC(F)F)cc2)c1)c1n[nH]c2ccccc12` [Example 105, N-(1-(4-((2,2-difluoroethylamino)methyl)benzyl)-1H-pyrazol-4-yl)-1H-indazole-3-carboxamide] gave an inhibitory constant (Ki) under setting [1] of 1 to 100 nM. The compound `COc1cncc(-c2ccc3c(C(=O)Nc4cnn(Cc5cccc(C#N)c5)c4)n[nH]c3c2)c1` [Example 166, N-[1-[(3-cyanophenyl)meth-yl]pyrazol-4-yl]-6-(5-methoxy-3-pyridyl)-1H-indazole-3-carboxamide] registered a Ki (Table 1, Examples 141-279) of 7.74 nM. `CCn1cc(NC(=O)c2n[nH]c3cc(-c4cn[nH]c4)ccc23)cn1` [Example 83, N-(1-ethyl-1H-pyrazol-4-yl)-6-(1H-pyrazol-4-yl)-1H-indazole-3-carboxamide] had a Ki under setting [1] of 1 to 100 nM. In turn, `CN(C)CCC(c1cccc(C(F)(F)F)c1)n1cc(NC(=O)c2n[nH]c3cc(-c4cn[nH]c4)ccc23)cn1` (stereo not drawn) [Example 248, N-[1-[3-(dimethylamino)-1-[3-(trifluorometh-yl)phenyl]propyl]py-razol-4-yl]-6-(1H-pyrazol-4-yl)-1H-indazole-3-carboxamide] registered a Ki (Table 1, Examples 141-279) of 0.128 nM. The compound `O=C(Nc1cnn(C(CO)c2ccccc2)c1)c1n[nH]c2ccccc12` (stereo not drawn) [Example 256, N-[1-(2-hydroxy-1-phenyl-ethyl)pyrazol-4-yl]-1H-indazole-3-carboxamide] yielded a Ki (Table 1, Examples 141-279) of 146 nM.

Under setting [1], `O=C(Nc1cnn(Cc2ccccc2C(F)(F)F)c1)c1n[nH]c2ccccc12` [Example 60, N-(1-(2-(trifluoromethyl)benzyl)-1H-pyrazol-4-yl)-1H-indazole-3-carboxamide] yielded a Ki of more than 100 nM. Same read-out and setting: the value for `O=C(Nc1cnn(Cc2cccc(CN3CCC3)c2)c1)c1n[nH]c2ccccc12` [Example 91, N-(1-(3-(azetidin-1-ylmethyl)benzyl)-1H-pyrazol-4-yl)-1H-indazole-3-carboxamide] was 1 to 100 nM; that for `CC(c1ccccc1)n1cc(NC(=O)c2n[nH]c3ccccc23)cn1` (stereo not drawn) [Example 131, N-(1-(1-phenylethyl)-1H-pyrazol-4-yl)-1H-indazole-3-carboxamide] was 1 to 100 nM.

In turn, `N#Cc1cccc(Cn2cc(NC(=O)c3n[nH]c4cc(-c5cn[nH]c5)c(F)cc34)cn2)c1` [Example 147, N-[1-[(3-cyanophenyl)meth-yl]pyrazol-4-yl]-5-fluoro-6-(1H-pyrazol-4-yl)-1H-indazole-3-carboxamide] displayed an inhibition constant (Ki) (Table 1, Examples 141-279) of 7.79 nM. In the case of `N#Cc1cccc(Cn2cc(NC(=O)c3n[nH]c4cc(-c5cncc(Cl)c5)ccc34)cn2)c1` [Example 224, 6-(5-chloro-3-pyridyl)-N-[1-[(3-cyanophenyl)meth-yl]pyrazol-4-yl]-1H-indazole-3-carboxamide], where the note is “Table 1, Examples 141-279”, the affinity, expressed as Ki, was 5.18 nM. This Ki is about 1.5-fold lower than that of the compound before. Still for that read-out and setting: the result for `O=C(Nc1cnn(Cc2ccccc2)c1)c1n[nH]c2cc(-c3cn[nH]c3)ccc12` [Example 181, N-(1-benzylpyrazol-4-yl)-6-(1H-pyrazol-4-yl)-1H-indazole-3-carboxamide] reads 1.07 nM. Under setting [1], `O=C(Nc1cnn(Cc2ccc(F)c(F)c2)c1)c1n[nH]c2ccccc12` [Example 68, N-(1-(3,4-difluorobenzyl)-1H-pyrazol-4-yl)-1H-indazole-3-carboxamide] displayed an inhibitory constant (Ki) of 1 to 100 nM. For the setting “Table 1, Examples 141-279”, `O=C(Nc1cnn(Cc2ccccc2)c1)c1n[nH]c2cc(-c3ccnnc3)ccc12` [Example 205, N-(1-benzylpyrazol-4-yl)-6-pyridazin-4 yl-1H-indazole-3 carboxamide] showed a Ki of 131 nM. Still for that read-out and setting: the value for `O=C(Nc1cnn(CC2CNC2)c1)c1n[nH]c2cc(-c3cn[nH]c3)ccc12` [Example 262, N-[1-(azetidin-3-ylmethyl)pyrazol-4-yl]-6-(1H-pyrazol-4-yl)-1H-indazole-3-carboxamide] was 4.69 nM; that for `Cn1nc(C(F)(F)F)cc1-c1ccc2c(C(=O)Nc3cnn(Cc4cccc(C#N)c4)c3)n[nH]c2c1` [Example 198, N-[1-[(3-cyanophenyl)meth-yl]pyrazol-4-yl]-6-[2-methyl-5-(trifluorometh-yl)pyrazol-3-yl]-1H-indazole-3-carboxamide] was 183 nM. Still for that read-out and setting: the result for `N#Cc1cccc(Cn2cc(NC(=O)c3n[nH]c4ccc(NC5CCNCC5)cc34)cn2)c1` [Example 180, N-[1-[(3-cyanophenyl)methyl]pyrazol-4-yl]-5-(4-piperidylamino)-1H-indazole-3-carboxamide] reads 2.71 nM. `CCNCc1ccc(Cn2cc(NC(=O)c3n[nH]c4ccccc34)cn2)cc1` [Example 110, N-(1-(4-((ethylamino)methyl)benzyl)-1H-pyrazol-4-yl)-1H-indazole-3-carboxamide]: under setting [1], the Ki was 1 to 100 nM. On the same count and under the same terms, the value for `COc1cncc(-c2ccc3c(C(=O)Nc4cnn(Cc5ccccc5)c4)n[nH]c3c2)c1` [Example 85, N-(1-benzyl-1H-pyrazol-4-yl)-6-(5-methoxypyridin-3-yl)-1H-indazole-3-carboxamide] was 1 to 100 nM. Regarding `COc1cncc(-c2ccc3c(C(=O)Nc4cnn(C(CN(C)C)c5cccnc5)c4)n[nH]c3c2)c1` (stereo not drawn) [Example 233, N-[1-[2-(dimethylamino)-1-(3-pyridyl)ethyl]py-razol-4-yl]-6-(5-methoxy-3-pyridyl)-1H-indazole-3-carboxamide], the Ki (Table 1, Examples 141-279) was determined as 51 nM. The same measure, in the same setting: the result for `CC[C@H](c1cscn1)n1cc(NC(=O)c2n[nH]c3cc(-c4cn[nH]c4)ccc23)cn1` [Example 174, 6-(1H-pyrazol-4-yl)-N-[1-[(1R)-1-thiazol-4-ylpropyl]pyrazol-4-yl]-1H-indazole-3-carboxamide] reads 1.42 nM. Turning to `O=C(Nc1cnn(Cc2ccc(CNC3CCC3)cc2)c1)c1n[nH]c2ccccc12` [Example 107, N-(1-(4-((cyclobutylamino)methyl)benzyl)-1H-pyrazol-4-yl)-1H-indazole-3-carboxamide], the Ki under setting [1] is 1 to 100 nM.

For the compound `COc1cncc(-c2ccc3c(C(=O)Nc4cnn(C(C)C)c4)n[nH]c3c2)c1` [Example 223, N-(1-isopropylpyrazol-4-yl)-6-(5-methoxy-3-pyridyl)-1H-indazole-3-carboxamide], the inhibition constant (Ki) (Table 1, Examples 141-279) was found to be 90 nM. `CN(C)CCC(c1ccccc1)n1cc(NC(=O)c2n[nH]c3cc(-c4cn[nH]c4)cnc23)cn1` (stereo not drawn) [Example 278, N-[1-[3-(dimethylamino)-1-phenyl-propyl]pyrazol-4-yl]-6-(1H-pyrazol-4-yl)-1H-pyrazolo[4,3-b]pyridine-3-carboxamide]: the affinity (Table 1, Examples 141-279) corresponds to a Ki of 1.29 nM.

In the case of `N#Cc1cccc(Cn2cc(NC(=O)c3n[nH]c4ccc(Cl)cc34)cn2)c1` [Example 1, 5-chloro-N-(1-(3-cyanobenzyl)-1H-pyrazol-4-yl)-1H-indazole-3-carboxamide], the Ki was 1 to 100 nM under setting [1] and 37.7 nM under setting [2].

For the setting “Table 1, Examples 141-279”, `O=C(Nc1cnn(Cc2ccccc2)c1)c1n[nH]c2cc(-c3cncc(Cl)c3)ccc12` [Example 207, N-(1-benzylpyrazol-4-yl)-6-(5-chloro-3-pyridyl)-1H-indazole-3-carboxamide] returned a Ki of 9.39 nM.

The term Ki denotes the dissociation constant of the complex between target and ligand, obtained from inhibition or displacement. Low values mean higher affinity, high ones lower affinity.
